The source of these data is paper PMC5463454 (Cancer discovery, 2016).

In one data set the test system is pGSK3β. In words: pGSK3β in platelet-rich plasma. The class given is in vivo, human.
The nature of data set [1]: Phase I safety and tolerability.
Data set [2] deals with tumor cell line and patient-derived xenograft models. In words: Xenograft tumor growth inhibition. The class given is in vivo, mice. The following applies: day 21, daily oral 100 mg/kg.
Where [3] appears, read: models with alterations in PTEN or PIK3CA, n = 21.
Where [4] appears, read: models without alterations, n = 6.

Consider `CC(C)NC[C@@H](C(=O)N1CCN(c2ncnc3c2[C@H](C)C[C@H]3O)CC1)c1ccc(Cl)cc1` [Ipatasertib], for which the “pGSK3β at 24 hours after dose” value with pGSK3β (PRP) is on record as “remained suppressed”. The “time of pGSK3β nadir after dose” value with pGSK3β (PRP, all dosing cohorts (25–800 mg)) is 2 hours. The pGSK3β inhibition is over 50% with pGSK3β (PRP, doses <100 mg) and at least 80% in the data set on pGSK3β (PRP, ipatasertib ≥400 mg). In the data set on pGSK3β (blood-based biomarkers), the “decrease of AKT signaling in blood-based PD assessments” value is on record as “approximately 50%”. Moreover, in data set [1] (PO QD, 21/7 dosing schedule), the “maximum tolerated dose (MTD)” value was 600 mg. In addition, the “grade 4 AEs or deaths related to ipatasertib” value in data set [1] (all doses) is on record as “no grade 4 AEs or deaths”. In addition, the figures for the “mean %TGI (±SEM)” value in data set [2] (setting [3]) and in data set [2] (setting [4]) were 95 ± 11% and 38 ± 12%, respectively. Moreover, the “median %TGI” value came out at 97% in data set [2] (setting [3]) and 44% in data set [2] (setting [4]).
